From patent US20210346288A1, “PHARMACEUTICAL FORMULATION CONTAINING ACTIVE METABOLITES OF REMDESIVIR FOR INHALATION” (priority 2020, published 2021)

Experiments:
[1] = Influence of pH and pH adjuster on stability of RV-MP solution (HPLC impurities, 60° C./75% RH); format: physicochemical
Procedure: Remdesivir monophosphate disodium salt is the salt of nucleoside monophosphate. The stability of remdesivir monophosphate disodium salt (referred to as RV-MP) is highly dependent on the pH. Four samples were prepared, having pH 3.0, 4.0, 5.0, 6.0. 23 ml of purified water was adjusted to the target pH with hydrochloric acid. RV-MP according to the amounts provided in table 5 was added to the solution, and the resulting mixture was sonicated until completely dissolved. The resulting mixture was adjusted to the target pH with hydrochloric acid. Finally, purified water was added to provide a final weight of 25.0 g.
(§1) Impurities Detection Method: HPLC Detection Method • Column: YMC-triart C 18, 4.6*150 mm, S-5 μm, 12 nm; • Flow: 0.8 ml/min • Injection volume: […], • Column temperature: 40° C. • A: Weigh 2.7 g of sodium dihydrogen phosphate, add 1 L of purified water, stir to dissolve, and filter to obtain. • B: Methanol
The stability of remdesivir monophosphate disodium salt (referred to as RV-MP) is highly dependent on the pH. Five samples were prepared, having pH 3.0, 3.2, 3.5, 3.8, 4.0. 23 ml of purified water was adjusted to the target pH with citric acid. RV-MP according to the amounts provided in Table 10 was added to the solution, and the resulting mixture was sonicated until completely dissolved. The resulting mixture was adjusted to the target pH with citric acid. Finally, purified water was added to provide a final weight of 25.0 g.
The stability of remdesivir monophosphate disodium salt (referred to as RV-MP) is highly dependent on the pH. Five samples were prepared, having pH 3.0, 3.2, 3.5, 3.8, 4.0. 23 ml of purified water was adjusted to the target pH with HCl. RV-MP according to the amounts provided in Table 16 was added to the solution, and the resulting mixture was sonicated until completely dissolved. Then the resulting mixture was adjusted to the target pH with HCl. Finally, purified water was added to provide a final weight of 25.0 g.

[2] = Strong degradation test under light conditions (HPLC impurities); format: physicochemical
Procedure: as §1
Sample 15: 60 mg RV_MP dissolved in 100 ml purified water.
The sample 15 was placed in light conditions, and the placement time was 2 hours, 4 hours, 6 hours, 24 hours, 48 hours, 72 hours, and the impurity detection method in Example 5 was used to detect the samples.
The impurity detection method of the present invention is the same as the impurity detection method in Example 5.

remdesivir monophosphate disodium salt [RV-MP]
Stability of RV-MP solution at 60° C. ([1]; 60° C.): unstable | Stability of RV-MP formulations ([1]; adjusting pH using HCl): stable at pH 3.0-4.0 | pH of highest stability ([1]; adjusting pH using HCl, pH 3.0-6.0 tested): 3.0 | Stability of resulting solution ([1]; using HCl to adjust the pH, compared with citric acid): more stable | Stability of resulting solution ([1]; using citric acid to adjust the pH, especially at pH3.0): unstable | Stability of RV-MP solution under light condition [2]: unstable
